These results are taken from the supplement of paper PMC10307832.

Test in all cases: relative viability (nuclei count vs DMSO), 5 days (fraction); higher = more cells survive
Compound in experiment [1]: C(C(=O)C(=O)O)Br [Bromopyruvate] + CC(=O)c1c(C)c2cnc(Nc3ccc(N4CCNCC4)cn3)nc2n(C2CCCC2)c1=O [Palbociclib] (partner 0.5 µM)
Summed up: (§1)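 Relative viability is defined as nuclei in treated wells over nuclei in vehicle wells. Duplicate plates were run and medians reported. Lung cancer cell lines in 1536-well plates were dosed by pin tool one day after seeding, with one drug or with a fixed anchor-drug dose plus five library-drug doses (not always all listed) in √10 steps, and nuclei were counted after 5 days.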

Compound in experiment [2]: C(C(=O)C(=O)O)Br [Bromopyruvate] + Cc1nc(NC(=O)N2CCC[C@H]2C(N)=O)sc1-c1ccnc(C(C)(C)C(F)(F)F)c1 [Alpelisib] (partner 2 µM)
Summed up: as §1

Compound in experiment [3]: CC(O)(CS(=O)(=O)c1ccc(F)cc1)C(=O)Nc1ccc(C#N)c(C(F)(F)F)c1 [Bicalutamide] + CS(=O)(=O)N1CCN(Cc2cc3nc(-c4cccc5[nH]ncc45)nc(N4CCOCC4)c3s2)CC1 [Pictilisib] (partner 1 µM)
Summed up: as §1

Compound in experiment [4]: CC(O)(CS(=O)(=O)c1ccc(F)cc1)C(=O)Nc1ccc(C#N)c(C(F)(F)F)c1 [Bicalutamide] + Nc1nc2[nH]cc(CCc3ccc(C(=O)N[C@@H](CCC(=O)O)C(=O)O)cc3)c2c(=O)[nH]1 [Pemetrexed] (partner 0.2 µM)
The method in brief:
as §1

As for NCI-H3122, the relative viability in experiment [1] (first compound 1 µM) is 0.167; in experiment [1] (first compound 3.162 µM), 0.202; in experiment [1] (first compound 10 µM), 0.197; in experiment [1] (first compound 31.62 µM), 0.178; in experiment [1] (first compound 100 µM), 0.13; in experiment [2] (first compound 1 µM), 0.841. For the same cell line, the relative viability in experiment [2] (first compound 3.162 µM) came out at 0.831; in experiment [2] (first compound 10 µM) it was 0.859; in experiment [2] (first compound 31.62 µM), 0.729; in experiment [2] (first compound 100 µM) it was 0.718; in experiment [3] (first compound 0.08 µM) it was 0.665; in experiment [3] (first compound 0.253 µM), 0.645. The relative viability was found to be 0.676 in experiment [3] (first compound 0.8 µM); 0.652 in experiment [3] (first compound 2.53 µM); 0.202 in experiment [4] (first compound 0.08 µM); 0.193 in experiment [4] (first compound 0.253 µM); 0.197 in experiment [4] (first compound 0.8 µM); 0.199 in experiment [4] (first compound 2.53 µM).

Turning to NCI-H441, the relative viability in experiment [1] (first compound 1 µM) amounted to 0.242; in experiment [1] (first compound 3.162 µM), 0.242; in experiment [1] (first compound 10 µM), 0.256; in experiment [1] (first compound 31.62 µM), 0.222; in experiment [1] (first compound 100 µM), 0.255; in experiment [2] (first compound 1 µM) it was 0.835. Moreover, the relative viability in experiment [2] (first compound 3.162 µM) stood at 1.01; in experiment [2] (first compound 10 µM), 0.714; in experiment [2] (first compound 31.62 µM) it was 0.658; in experiment [2] (first compound 100 µM), 0.547; in experiment [3] (first compound 0.08 µM) it was 0.594; in experiment [3] (first compound 0.8 µM) it was 0.513. The relative viability in experiment [3] (first compound 2.53 µM) amounted to 0.426; in experiment [4] (first compound 0.08 µM) it was 0.311; in experiment [4] (first compound 0.253 µM) it was 0.281; in experiment [4] (first compound 0.8 µM), 0.284; in experiment [4] (first compound 2.53 µM), 0.272.

Consider NCI-H2170, for which the relative viability was found to be 0.365 in experiment [1] (first compound 1 µM); 0.421 in experiment [1] (first compound 3.162 µM); 0.389 in experiment [1] (first compound 10 µM); 0.396 in experiment [1] (first compound 31.62 µM); 0.411 in experiment [1] (first compound 100 µM); 0.833 in experiment [2] (first compound 1 µM). Also, the relative viability in experiment [2] (first compound 3.162 µM) amounted to 0.831; in experiment [2] (first compound 10 µM), 0.764; in experiment [2] (first compound 31.62 µM) it was 0.914; in experiment [2] (first compound 100 µM), 0.864; in experiment [3] (first compound 0.08 µM) it was 0.308; in experiment [3] (first compound 0.253 µM), 0.298. In addition, the relative viability amounted to 0.289 in experiment [3] (first compound 0.8 µM); 0.302 in experiment [3] (first compound 2.53 µM); 0.251 in experiment [4] (first compound 0.08 µM); 0.262 in experiment [4] (first compound 0.253 µM); 0.281 in experiment [4] (first compound 0.8 µM); 0.25 in experiment [4] (first compound 2.53 µM).

Regarding NCI-H1395, the relative viability in experiment [1] (first compound 1 µM) is 0.551; in experiment [1] (first compound 3.162 µM), 0.531; in experiment [1] (first compound 10 µM), 0.724; in experiment [1] (first compound 31.62 µM), 0.614; in experiment [1] (first compound 100 µM), 0.662; in experiment [2] (first compound 1 µM), 1.02. Further, the relative viability in experiment [2] (first compound 3.162 µM) turned out to be 1.46; in experiment [2] (first compound 10 µM) it was 1.26; in experiment [2] (first compound 31.62 µM) it was 1.06; in experiment [2] (first compound 100 µM), 0.991; in experiment [3] (first compound 0.08 µM), 0.596; in experiment [3] (first compound 0.253 µM), 0.519. Also, the relative viability in experiment [3] (first compound 0.8 µM) turned out to be 0.687; in experiment [3] (first compound 2.53 µM) it was 0.456; in experiment [4] (first compound 0.08 µM) it was 0.89; in experiment [4] (first compound 0.253 µM), 0.766; in experiment [4] (first compound 0.8 µM), 0.965; in experiment [4] (first compound 2.53 µM) it was 0.709.

In the case of NCI-H358, the relative viability in experiment [1] (first compound 1 µM) is 0.113; in experiment [1] (first compound 3.162 µM), 0.132; in experiment [1] (first compound 10 µM) it was 0.168; in experiment [1] (first compound 31.62 µM), 0.127; in experiment [1] (first compound 100 µM) it was 0.142; in experiment [2] (first compound 1 µM), 0.812. The relative viability in experiment [2] (first compound 3.162 µM) came to 1.08; in experiment [2] (first compound 10 µM), 0.819; in experiment [2] (first compound 31.62 µM), 0.69; in experiment [2] (first compound 100 µM), 0.721; in experiment [3] (first compound 0.08 µM) it was 0.385; in experiment [3] (first compound 0.253 µM), 0.361. The relative viability in experiment [3] (first compound 0.8 µM) came out at 0.301; in experiment [3] (first compound 2.53 µM), 0.303; in experiment [4] (first compound 0.08 µM), 0.174; in experiment [4] (first compound 0.253 µM), 0.17; in experiment [4] (first compound 0.8 µM), 0.218; in experiment [4] (first compound 2.53 µM), 0.176.

Consider PC-14, for which the relative viability was 0.577 in experiment [1] (first compound 1 µM); 0.538 in experiment [1] (first compound 3.162 µM); 0.686 in experiment [1] (first compound 10 µM); 0.573 in experiment [1] (first compound 31.62 µM); 0.411 in experiment [1] (first compound 100 µM); 1.02 in experiment [2] (first compound 1 µM). The relative viability was found to be 1.01 in experiment [2] (first compound 3.162 µM); 0.93 in experiment [2] (first compound 10 µM); 0.966 in experiment [2] (first compound 31.62 µM); 0.964 in experiment [2] (first compound 100 µM); 0.894 in experiment [3] (first compound 0.08 µM); 0.652 in experiment [3] (first compound 0.253 µM). For the same cell line, the relative viability in experiment [3] (first compound 0.8 µM) was 0.707; in experiment [3] (first compound 2.53 µM) it was 0.659; in experiment [4] (first compound 0.08 µM), 0.121; in experiment [4] (first compound 0.253 µM) it was 0.121; in experiment [4] (first compound 0.8 µM) it was 0.119; in experiment [4] (first compound 2.53 µM) it was 0.117.

For CAL-12T, the relative viability in experiment [1] (first compound 1 µM) worked out at 0.429; in experiment [1] (first compound 3.162 µM), 0.444; in experiment [1] (first compound 10 µM), 0.552; in experiment [1] (first compound 31.62 µM), 0.395; in experiment [1] (first compound 100 µM) it was 0.285; in experiment [2] (first compound 1 µM), 1.17. Also, the relative viability in experiment [2] (first compound 3.162 µM) was determined as 1.49; in experiment [2] (first compound 10 µM) it was 1.38; in experiment [2] (first compound 31.62 µM) it was 1.25; in experiment [2] (first compound 100 µM), 0.952; in experiment [3] (first compound 0.08 µM), 0.394; in experiment [3] (first compound 0.253 µM), 0.415. Further, the relative viability in experiment [3] (first compound 0.8 µM) came out at 0.454; in experiment [3] (first compound 2.53 µM) it was 0.345; in experiment [4] (first compound 0.08 µM), 1.34; in experiment [4] (first compound 0.253 µM), 1.06; in experiment [4] (first compound 0.8 µM) it was 1.28; in experiment [4] (first compound 2.53 µM), 1.14.
